15 compounds from PubChem BioAssay (NCI) can be followed below.

Test systems include CCRF-CEM leukemia; TK-10 renal; LOX IMVI melanoma; NCI-H522 lung; SK-OV-3 ovarian; COLO 205 colon; T-47D breast; UO-31 renal; SK-MEL-5 melanoma; SR leukemia.
What all share (test): NCI tumour cell line growth inhibition, 48 h

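In this assay, cells in 96-well plates receive the compound at five concentrations for 48 hours. Endpoints are linearly interpolated between the surrounding concentrations. At the TGI there is no net growth.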

As to `O=c1cc(N2CCOCC2)[nH]c(=O)n1-c1ccc(F)cc1`, the TGI with CCRF-CEM leukemia, in the test on TK-10 renal, in the test with LOX IMVI melanoma, with NCI-H522 lung, in the test on SK-OV-3 ovarian and in the test on COLO 205 colon was greater than 100 µM in each case. In the test on T-47D breast, the TGI was greater than 100 µM.

For the compound `CC(C)(Br)C(Br)CCC1(C2CO2)CO1` (stereo unspecified), the TGI in the test with UO-31 renal, in the test with CCRF-CEM leukemia, in the test on NCI-H522 lung, in the test on SK-MEL-5 melanoma, in the test with SK-OV-3 ovarian and in the test with COLO 205 colon was greater than 5 µM throughout. Further, in the test with T-47D breast, the TGI is greater than 5 µM.

Turning to `Cc1cc(C)n(C(=C(C(Cl)=C(Cl)Cl)[N+](=O)[O-])n2nc(C)cc2C)n1`, the TGI with UO-31 renal was found to be 11.3 µM; in the test on CCRF-CEM leukemia it was 5.8 µM; with TK-10 renal, 9.36 µM; in the test on LOX IMVI melanoma, 4.69 µM; with NCI-H522 lung it was 6.74 µM; in the test on SK-MEL-5 melanoma it was 3.88 µM. Moreover, the values for the TGI with SK-OV-3 ovarian, in the test on COLO 205 colon and with T-47D breast were 8.69 µM, 3.76 µM and 23.1 µM, respectively.

In the case of `COc1ccc(N2C(=O)/C(=C(\C)c3cc4ccccc4oc3=O)N=C2c2cc([N+](=O)[O-])ccc2Cl)cc1`, the TGI was greater than 100 µM in the test on UO-31 renal; greater than 100 µM in the test on CCRF-CEM leukemia; greater than 100 µM in the test on LOX IMVI melanoma; 39.1 µM in the test with NCI-H522 lung; greater than 100 µM in the test with SK-MEL-5 melanoma; greater than 100 µM in the test on SR leukemia. For the same compound, the TGI in the test with SK-OV-3 ovarian and with COLO 205 colon was greater than 100 µM in each case.

In the case of `CC(=O)Nc1ccc(C(=O)NN2C(=O)CSC2c2ccc([N+](=O)[O-])cc2)cc1` (stereo unspecified), the TGI with UO-31 renal, in the test on CCRF-CEM leukemia, in the test with TK-10 renal, with SK-MEL-5 melanoma, with SK-OV-3 ovarian and with COLO 205 colon was greater than 100 µM throughout. In addition, the TGI in the test on T-47D breast is greater than 100 µM.

On to `O=C(C=P(c1ccccc1)(c1ccccc1)c1ccccc1)c1ccc(-c2cccc([N+](=O)[O-])c2)s1`, for which the TGI in the test with UO-31 renal was greater than 100 µM; in the test on CCRF-CEM leukemia, greater than 100 µM; with TK-10 renal, greater than 100 µM; with LOX IMVI melanoma, greater than 100 µM; in the test on NCI-H522 lung, greater than 100 µM; with SK-MEL-5 melanoma, 74.2 µM. Also, the TGI with SR leukemia is greater than 100 µM; in the test on SK-OV-3 ovarian, greater than 100 µM; in the test on COLO 205 colon, 27.9 µM.

Regarding `CCOC(=O)C1(C#N)C(c2ccccc2)CC(O)(c2ccc(OC)cc2)C(C(=O)c2ccc(OC)cc2)C1c1ccccc1` (stereo unspecified), the TGI with UO-31 renal, in the test on CCRF-CEM leukemia, with TK-10 renal, in the test on LOX IMVI melanoma, in the test on NCI-H522 lung and in the test with SK-MEL-5 melanoma was greater than 100 µM throughout. For the same compound, the TGI in the test with SR leukemia, with SK-OV-3 ovarian and with COLO 205 colon was greater than 100 µM throughout.

As to `COc1cc(OC)c(-c2ccc(OCc3ccccc3)c3c(OC)cc(C)cc23)c2c1C(C)=N[C@H](C)C2`, the TGI came out at 2.63 µM with UO-31 renal; 4.36 µM in the test with CCRF-CEM leukemia; 3.43 µM in the test with TK-10 renal; 3.65 µM in the test on LOX IMVI melanoma; 3.6 µM in the test with NCI-H522 lung; 4.1 µM in the test with SK-MEL-5 melanoma. For the same compound, the TGI worked out at 3.08 µM in the test with SR leukemia, 4.03 µM in the test on SK-OV-3 ovarian and 4.5 µM in the test on COLO 205 colon.

Take `Nc1ncnc2c1ccn2C/C=C\CO`: the TGI with UO-31 renal, in the test on CCRF-CEM leukemia, in the test on TK-10 renal, with LOX IMVI melanoma, in the test with NCI-H522 lung and in the test on SK-MEL-5 melanoma was greater than 100 µM in each case. In addition, the TGI in the test with SK-OV-3 ovarian, in the test on COLO 205 colon and with T-47D breast was greater than 100 µM each time.

`COc1cc(C2SCC(=O)N2c2ccccn2)cc(OC)c1OC` (stereo unspecified): the TGI in the test on UO-31 renal, in the test with CCRF-CEM leukemia, with TK-10 renal, with LOX IMVI melanoma, in the test with NCI-H522 lung and in the test on SK-MEL-5 melanoma was greater than 100 µM in each case. The TGI in the test with SR leukemia, in the test on SK-OV-3 ovarian and in the test on COLO 205 colon was greater than 100 µM throughout.

As for `O=c1[nH]c2c(nc1NC13CC4CC(CC(C4)C1)C3)c(=O)oc1ccccc12`, the TGI in the test with UO-31 renal, in the test with CCRF-CEM leukemia, with TK-10 renal, in the test on LOX IMVI melanoma, with NCI-H522 lung and in the test with SK-MEL-5 melanoma was greater than 100 µM throughout. The TGI with SR leukemia, in the test with SK-OV-3 ovarian and in the test with COLO 205 colon was greater than 100 µM each time.

With `CC(=O)c1ccc(NCc2cc(O)ccc2O)cc1`, the TGI was 23.9 µM in the test with UO-31 renal; greater than 100 µM with CCRF-CEM leukemia; 29 µM with TK-10 renal; 74.3 µM in the test on LOX IMVI melanoma; greater than 100 µM with NCI-H522 lung; 57.2 µM in the test with SK-MEL-5 melanoma. The figures for the TGI with SK-OV-3 ovarian, in the test with COLO 205 colon and in the test with T-47D breast were 59.8 µM, 43.8 µM and 63.1 µM, respectively.

On to `c1nc(OCC2CCCCC2)c2[nH]cnc2n1`, for which the TGI in the test with UO-31 renal, in the test with CCRF-CEM leukemia, with TK-10 renal, in the test on LOX IMVI melanoma, in the test on NCI-H522 lung and in the test with SK-MEL-5 melanoma was greater than 100 µM throughout. Moreover, the TGI in the test on SK-OV-3 ovarian and in the test on COLO 205 colon was greater than 100 µM each time.

For the compound `N#Cc1c(-c2ccc(Cl)cc2)c2c([nH]c1=O)-c1ccccc1SC2`, the TGI in the test with UO-31 renal is greater than 100 µM; in the test with CCRF-CEM leukemia, 88.6 µM; with TK-10 renal, 52.9 µM; in the test with LOX IMVI melanoma, 73.9 µM; with SK-MEL-5 melanoma, greater than 100 µM; in the test with SR leukemia, greater than 100 µM. Also, the TGI in the test on SK-OV-3 ovarian is greater than 100 µM; in the test with COLO 205 colon it was 50.3 µM.

As to `CO/N=C/c1cc(OC)c(OC)c(OC)c1`, the TGI in the test with UO-31 renal, in the test on CCRF-CEM leukemia, with TK-10 renal, in the test on LOX IMVI melanoma, in the test on NCI-H522 lung and with SK-MEL-5 melanoma was greater than 100 µM throughout. Besides, the TGI with SR leukemia, with SK-OV-3 ovarian and in the test with COLO 205 colon was greater than 100 µM throughout.
